Assay results from paper PMC10940318, “Targeted intracellular delivery of dimeric STINGa by two pHLIP peptides for treatment of solid tumors” (Frontiers in Pharmacology, 2024).

Legend:
[1] = pH-dependent insertion into POPC liposome bilayer monitored by CD; format: physicochemical; settings: CD ellipticity vs pH, 7 µM agent, 1.4 mM POPC, 25°C, Henderson-Hasselbalch fit
Method: The interactions of pHLIP-mMSA and 2pHLIP-dMSA with liposomes were investigated by recording the construct’s fluorescence and circular dichroism (CD) using a PC1 spectrofluorometer (ISS) and a MOS-450 spectrometer (Bio-Logic Science Instruments), respectively, with temperature control set to 25°C. Liposomes, constituting of large unilamellar vesicles were prepared by extrusion. 1-palmitoyl-2-oleoyl-sn-glycero-3-phosphocholine (POPC) lipids (Avanti Polar Lipids) in chloroform were desolvated on a rotary evaporator and dried under vacuum for a minimum of 2 h. The phospholipid film was rehydrated in 2 mM citrate phosphate buffer, pH 7.4, vortexed, and passed through the extruder (using a 50 nm membrane pore size) 21 times.
Fluorescence spectra were recorded from 310 nm to 390 nm at an excitation wavelength of 295 nm and 1.0 mm sized slits. […] CD spectra were recorded from 190 to 260 nm with a step size of 1 nm. […]
The pH-dependent insertion of pHLIP-mMSA or 2pHLIP-dMSA into the lipid bilayer of POPC liposomes was studied by monitoring changes in the molar ellipticity as a function of pH. After the addition of aliquots of citric acid, the pHs of solutions containing pHLIP-mMSA/2pHLIP-dMSA and POPC liposomes were measured using an Orion PerHecT ROSS Combination pH Micro Electrode and an Orion Dual Star pH and ISE Benchtop Meter. […]

[2] = Self-immolation kinetics of the S-S linker and payload release after DTT, by HPLC; format: physicochemical; settings: DTT in 50 mM phosphate buffer, 150 mM NaCl, pH 7.4; HPLC at 0.5-48 h, UV 220/280/325 nm
Method: Figure S3. Kinetics of self-immolation of 2pHLIP-dMSA. […] Starting 2pHLIP-dMSA is shown on A.
Figure S4. Self-immolation kinetics of pHLIP-mMSA. HPLC chromatograms recorded at 280 nm and 325 nm for pHLIP-mMSA treated with DTT dissolved in 50 mM phosphate buffer containing 150 mM NaCl pH 7.4 at different time points ([…]) after addition of DTT (A-G) and the retention time for mMSA (H) and pHLIP (I) are shown. Starting pHLIP-mMSA is shown on A.

CT26 tumors = test: Cytokine levels in tumor and serum by ELISA; format: in vivo, Balb/c mice
Method: To establish levels of cytokines in blood and tumor samples, 5 × 10^4 CT26 cancer cells were injected SQ in 100 µL of growth medium into the right flank of female Balb/c mice. When tumors reached 250–500 mm^3 in volume, the mice received a single IP injection of 300 μM 500 µL 2pHLIP-dMSA or no injections. Animals were euthanized at 6- and 24-h post-injection, blood and tumors were collected. Blood samples were kept for 40 min at RT, centrifuged at 5,000 g for 20 min at +4°C and supernatant (serum) was collected. Tumors were frozen in liquid nitrogen. Both the serum and the tumor tissue samples were kept at −80°C until further processing and analysis. The tumor samples were processed while on ice, using a bullet blender (Next Advance) with 1 mm diameter zirconium silicate beads (Next Advance). The supernatant of the processed tumors was used for enzyme-linked immunoassay (ELISA) assays. Matched antibody pair kits for mouse TNF alpha (Sino Biological), mouse IL-6 (Abcam), mouse IFN gamma (Invitrogen), mouse IFN beta (Bio-Techne), and a precoated mouse IFN alpha kit (Invitrogen) were used. For TNF alpha and IFN beta the capture antibodies were diluted in PBS (Cytiva), while the IL-6 and IFN gamma capture antibodies were diluted in their respective coating buffers. The diluted capture antibodies were incubated in the plates overnight at +4°C and washed the next day with PBS/Tween washing buffer (Sigma-Aldrich). The TNF alpha plate was blocked using 2% BSA (Thermo-Scientific) diluted in washing buffer, the IFN beta plate was blocked using 1% BSA diluted in PBS, while the IFN alpha, IFN gamma, and IL-6 plates were blocked using their respective dilution buffers. Blocking was done for 2 h at RT on an orbital shaker at 200 rpm. After blocking, the plates were washed and then incubated with the diluted tumor and serum samples along with the corresponding standard solutions for each ELISA kit. The samples were incubated for 2 h at RT on an orbital shaker at 200 rpm. The TNF alpha plate was incubated for 1 h at RT with a diluted detection antibody conjugated with horseradish peroxidase (HRP). The IL-6, IFN alpha, IFN beta, and IFN gamma plates were incubated for 1 h at RT with a diluted detection antibody conjugated with biotin followed by incubation for 1 h at RT with their respective diluted HRP-streptavidin conjugates. All plates were washed and incubated with 3,3′,5,5′-tetramethylbenzidine (TMB) (Invitrogen) and peroxide solution mixed at a ratio of 1:1 (Thermo Scientific) for up to 20 min, then a stop solution (10% H2SO4) was added to the plates. The signal from the wells was quantified by absorbance measured at 450 nm using a Bio-Rad iMark microplate reader. Antibody standards were used to plot calibration curves.

[3] = single IP injection 300 µM 500 µL, 6 and 24 h

## ADQDNPWRAYLDLLFPTDTLLLDLLWCG [2pHLIP-dMSA]
[1]
  cooperativity (n) of insertion into POPC bilayer: 1.2
  pK (mid-point) of insertion into POPC bilayer: 6.0
[2]
  time to completion of linker self-immolation and release of payload in its original form: ≤ 48 h
CT26 tumors; 6 h after single IP injection 300 µM 500 µL, returned to normal at 24 h
  IL-6 level in blood (Figure 4D, in words): slight increase
CT26 tumors; 6 h after single IP injection 300 µM 500 µL, vs untreated mice
  increase of TNF-α level in tumors: 23 fold
CT26 tumors; 24 h after single IP injection 300 µM 500 µL
  TNF-α level in tumors (in words): fell to a normal level
CT26 tumors; [3]
  level of IFN-α in tumors and serum (in words): did not change much
  level of IFN-γ in tumors and serum (in words): did not change much
CT26 tumors; single IP injection 300 µM 500 µL, treated and untreated mice
  TNF-α level in serum (in words): insignificant
CT26 tumors; single IP injection 300 µM 500 µL, two orders of magnitude lower than in tumors
  IFN-β level in serum (in words): slight increase
CT26 tumors; single IP injection 300 µM 500 µL, vs untreated mice
  increase of tumor level of IFN-β: 8 fold
